Numbered stars: 1 amine (or outer) side, 2 acyl side, 3 side chain; on linkers, the order of the positions; unused ones are H or OH. Bridge positions count the residues as written; N and C are the ends. Square brackets hold non-standard residues; d marks the D form. Peptide text beside a SMILES is read from it. I, II: the chains in the order shown. Actinocin(9to1) = Cc1c2oc3c(C)ccc(C(=O)[*:1])c3nc-2c(C(=O)[*:2])c(N)c1=O; NMeV = CN[C@H](C(=O)O)C(C)C; Sar = CNCC(=O)O
System: trout bactenecin gene
Experiment: RT-PCR analysis of trout bactenecin (cathelicidin) expression in stimulated head kidney leucocytes
Assay type: cell-based, rainbow trout
Settings: for effect on LPS-stimulated expression of trout bactenecin: added 3 h after LPS stimulation (5 μg/ml), FIG. 14
Protocol: Rainbow trout head kidney leucocytes were obtained by disrupting the head kidney tissue through a 100 μm nylon mesh. After washing, the leucocytes were suspended in L15 medium (Gibco) and stimulated as follows: • (A) LPS time course: Cells were stimulated with 5 μg/ml of E. coli 0127:B8 lipopolysaccharide (LPS, Sigma) for different time periods (0, 0.5 h, 1 h, 2 h, 3 h, 4 h). • (B) Transcription/translation inhibition: Streptomyces actinomycin D (Sigma) at 100 ng/ml was added to the cells after 3 h of LPS induction (5 μg/ml) to inhibit transcription. Alternatively cycloheximide at 10 μg/ml was added to the cells after 3 h of LPS stimulation (as above) to inhibit translation. • (C) Different inducers: 5 μg/ml of Phytohemagglutinin (PHA, Sigma), 25 ng/ml of Phorbol Myristate Acetate (PMA, Sigma) alone, or in combination with 5×10^−7M of Calcium Ionophore (Sigma) were added to the cells for 4 h.
At the end of the relevant time period, total RNA was isolated from approximately 2×10^7 cells, with RNAzol B (Biogenesis) according to the manufacturer's instructions. The RNA was then reverse transcribed to cDNA and the product used as template in PCRs for the trout cathelicidin gene and β-actin as a positive control. The primers used for the amplification of the cathelicidin gene were fF1 (5′-[…]-3′ SEQ ID NO: 80) and R1 (5′-[…]-3′ SEQ ID NO: 81), and for the β-actin were forward (5′-ATGGAAGATGAAATCGCC-3′ SEQ ID NO: 82) and reverse (5′-TGCCAGATCTTCTCCATG-3′ SEQ ID NO: 83). The PCR reaction mix was as follows: 5 μl of phage mix, 1.5 μl 10 mM dNTPs mix, 0.125 μl of 5 units/μl Taq DNA Polymerase, 2.5 μl 10×NH4 buffer, 0.75 μl 50 mM MgCl2, 1.5 μl forward primer, 1.5 μl reverse primer and 12.125 μl of dH2O. The cycling protocol was as follows: initial melting at 94° C. for 4 min, followed by 30 cycles of 94° C. for 45 sec, 60° C. for 45 sec, 72° C. for 1 min, with a final elongation at 72° C. for 10 min. The expected size of the products was 320 bp for the cathelicidin gene and 260 bp for β-actin.

Compound	effect on LPS-stimulated expression of trout bactenecin	induction of trout bactenecin expression in leucocytes (after 4 h of induction, FIG. 13)
Cc1c2oc3c(C)ccc(C(=O)N[C@@H]4C(=O)N[C@H](C(C)C)C(=O)N5CCC[C@H]5C(=O)N(C)CC(=O)N(C)[C@@H](C(C)C)C(=O)O[C@@H]4C)c3nc-2c(C(=O)N[C@@H]2C(=O)N[C@H](C(C)C)C(=O)N3CCC[C@H]3C(=O)N(C)CC(=O)N(C)[C@@H](C(C)C)C(=O)O[C@@H]2C)c(N)c1=O [actinomycin D] (I: T[dV]P[Sar][NMeV] / II: T[dV]P[Sar][NMeV]; ester I:1-I:C, II:1-II:C; linker I:N-II:N via Actinocin(9to1))	inhibited completely	–
C[C@@H]1C[C@@H]([C@H](O)CC2CC(=O)NC(=O)C2)C(=O)[C@@H](C)C1 [Cycloheximide, cycloheximide]	did not induce a superinduction	–
CCCCCCCCCCCCCC(=O)O[C@@H]1[C@@H](C)[C@@]2(O)[C@@H](C=C(CO)C[C@]3(O)C(=O)C(C)=C[C@@H]23)[C@@H]2C(C)(C)[C@]12OC(C)=O [PMA, Phorbol Myristate Acetate]	–	only PMA+calcium ionophore induced expression
